From patent US12685717B2, “Suppression of inflammasome activation” (Washington University, priority 2020, dated 2026)

Columns and labels:
Format in all cases: cell-based
SWELL1 current = test: Hypotonically-induced currents in wild-type primary macrophages; conditions: wild-type (WT) primary macrophages, 210 mOsm; FIG. 7
[1] = test system: SWELL1 KO primary macrophages; test: Hypotonically-induced currents in SWELL1 KO primary macrophages; conditions: 210 mOsm, FIG. 8
Description: See FIG. 7 (Panel A, Current over time plot; Panel B, Current voltage plot from (A) above). Current over time of hypotonically-induced currents in SWELL1 KO primary macrophages (210 mOsm) was measured along with DCPIB response. […] See FIG. 8 (Panel A, Current over time plot; Panel B, Current voltage plot from (A) above).

RAW 264.7 cells = test: LPS-induced inflammatory cytokine mRNA expression in RAW 264.7 cells (qRT-PCR); conditions: 10 μM, 2 hours preincubation, LPS 50 ng/ml for 30 minutes, FIG. 6
Description: RAW 264.7 cells were incubated with either vehicle (DMSO) or SN-401 (10 μM) and SN-406 (10 μM) for 2 hours and subsequently, cells were activated with either LPS (50 ng/ml) alone or along with SN-401 (10 μM) and SN-406 (10 μM) for 30 minutes. After the activation cells were harvested for qRT-PCR analysis (see FIG. 6, panels A-C). Relative mRNA expression for selected inflammatory markers, IL1β, TNF-α and CXCL10 from 3 independent experiments. Statistical significance between the indicated groups were calculated by using a two-tailed Student's t-test. Error bars represent mean ±s.e.m. *, P<0.05, **, P<0.01, ***, P<0.001, ****, P<0.0001.

[2] = test system: inflammasome mediated IL-1β secretion from primary macrophages; test: Macrophage inflammasome activation (IL-1β) in response to LPS + MSU crystals; conditions: LPS priming followed by MSU, FIG. 5
Excerpt: See FIG. 4 for the structures of the compounds. Mechanical stimulation by MSU crystals function as a physiological activation mechanism for the putatively mechanosensitive SWELL1-LRRC8 channel complex as macrophages engulf MSU and undergo large volume changes. This is analogous to cholesterol crystals that are thought to contribute to NASH by driving simple hepatic steatosis toward fibrotic steatosis. […] First-pass effect from oral delivery, combined with the fact that SN-40X are lipophilic carboxylic acids may conspire to increase hepatic drug concentrations sufficiently to exert anti-inflammatory activity on resident hepatic macrophages and Kupffer cells that contribute to steatohepatitis.

CCCCC1(C2CCCC2)Cc2cc(OCCCC(=O)O)c(Cl)c(Cl)c2C1=O (stereo not drawn) [DCPIB, 4-[(2-butyl-6,7-dichloro-2-cyclopentyl-1-oxo-2,3-dihydro-1H-inden-5-yl)oxy]butanoic acid]
inhibition of hypotonically-induced current (SWELL1 current): inhibition | response of hypotonically-induced current [1]: No response

CCCCC1(C2CCCC2)Cc2cc(OCCCC(=O)O)c(Cl)c(Cl)c2C1=O (stereo not drawn) [SN-401]
expression of LPS-induced inflammatory cytokine production (relative mRNA IL1β, TNF-α, CXCL10) (RAW 264.7 cells): Inhibit | suppression of inflammasome mediated IL-1β secretion [2]: fully suppressed

CCCCC1(C2CCCC2)Cc2cc(OCCCCCC(=O)O)c(Cl)c(Cl)c2C1=O (stereo not drawn) [SN-406]
expression of LPS-induced inflammatory cytokine production (relative mRNA IL1β, TNF-α, CXCL10) (RAW 264.7 cells): Inhibit | suppression of inflammasome mediated IL-1β secretion [2]: fully suppressed
